Series [1] in a line: Serum levels in mice after oral administration. Type of series: in vivo. As to conditions: mouse, 5 mg/kg, read-out: Serum level; for concentration at 0.25 h: 15'; for concentration at 0.5 h: 30'. From the text:
(§1) In most cases the values are identical, but for some strains they are about 2-4 times better.
Serum levels in mice after oral administration

The next series deals with Providencia 12052. The series can be described thus: MIC, agar dilution test/Isosensitest medium. As to conditions: agar dilution test, Isosensitest medium. The series is classed as cell-based.
Description: as §1
(§2) Agar dilution test/Isosensitest medium
A general note: In agar dilution the substance is mixed into plates at graded concentrations.

A further series deals with E. coli 455/7. Put plainly: MIC, agar dilution test/Isosensitest medium. The series is classed as cell-based. As to conditions: Escherichia coli, agar dilution test, Isosensitest medium.
Description: as §1, §2

The test system of the next series is Proteus mir. 8223. Put plainly: MIC, agar dilution test/Isosensitest medium. Type of series: cell-based. As to conditions: agar dilution test, Isosensitest medium.
Description: as §1, §2

A further series concerns Pseudomonas W. Put plainly: MIC, agar dilution test/Isosensitest medium. As to conditions: agar dilution test, Isosensitest medium. The series is classed as cell-based.
Description: as §1, §2

In the next series the test system is Proteus mir. 8175. The series can be described thus: MIC, agar dilution test/Isosensitest medium. Type of series: cell-based. As to conditions: agar dilution test, Isosensitest medium.
Description: as §1, §2

The test system of a further series is Klebsiella 6179. Put plainly: MIC, agar dilution test/Isosensitest medium. The series is classed as cell-based. As to conditions: agar dilution test, Isosensitest medium.
Description: as §1, §2

Another series relates to Klebsiella 57 USA. The series can be described thus: MIC, agar dilution test/Isosensitest medium. Type of series: cell-based. As to conditions: agar dilution test, Isosensitest medium.
Description: as §1, §2

The subject of a further series is E. coli A 261. Put plainly: MIC, agar dilution test/Isosensitest medium. Type of series: cell-based. As to conditions: Escherichia coli, A261, agar dilution test, Isosensitest medium.
Description: as §1, §2

Series [2] can be described thus: Serum levels in mice following subcutaneous administration. The series is classed as in vivo. As to conditions: mouse, sc, 5 mg/kg, read-out: Serum level; for concentration at 0.25 h: 15'; for concentration at 0.5 h: 30'. Here is the method:
as §1
Serum levels in mice following subcutaneous
administration of 5 mg/kg

Another series concerns strains of Table 1. Put plainly: MIC comparison over the strains of Table 1. Type of series: cell-based. As to conditions: versus II.
Description: as §1, §2

The nature of series [3]: Pharmacokinetics in mice following oral and parenteral administration. The series is classed as in vivo. As to conditions: versus II.
Description: as §1

≈ marks a conversion by molar mass, not a printed value.

A word on the MIC: it is the lowest concentration found to suppress growth. A higher MIC goes with a less susceptible organism.

On to `CNn1cc(C(=O)O)c(=O)c2cc(F)c(N3CCN(C)CC3)cc21` [II, reference compound], for which the concentration at 0.25 h in [1] is 700 ng/mL; in [2], 840 ng/mL. For the same molecule, the values for the concentration at 0.5 h in series [1] and in [2] were 580 ng/mL and 1300 ng/mL, respectively. Also, the results for the concentration at 1 h in series [1] and in series [2] were 320 ng/mL and 450 ng/mL, respectively. For the same molecule, the concentration at 2 h in series [1] and in series [2] was 100 ng/mL throughout. In addition, the MIC against Providencia 12052 came out at 16 µg/mL (≈ 47.9 µM); with E. coli 455/7 it was 8 µg/mL (≈ 23.9 µM); with Proteus mir. 8223 it was 4 µg/mL (≈ 12 µM); against Pseudomonas W., 1 µg/mL (≈ 2.99 µM); against Proteus mir. 8175, 0.125 µg/mL (≈ 0.374 µM); against Klebsiella 6179, 0.25 µg/mL (≈ 0.748 µM). The figures for the MIC in the series with Klebsiella 57 USA and with E. coli A 261 were 0.25 µg/mL (≈ 0.748 µM) and 0.06 µg/mL (≈ 0.179 µM), respectively.

With `CNn1cc(C(=O)O)c(=O)c2cc(F)c(N3CCN(C)CC3)c(F)c21` [Example 3], the concentration at 0.25 h in series [1] turned out to be 900 ng/mL; in series [2], 1200 ng/mL. Moreover, the results for the concentration at 0.5 h in series [1] and in [2] were 1200 ng/mL and 1400 ng/mL, respectively. Also, the concentration at 1 h stood at 600 ng/mL in series [1] and 920 ng/mL in series [2]. The concentration at 2 h in [1] stood at 250 ng/mL; in [2], 300 ng/mL. In the series on strains of Table 1 (for some strains), the “MIC values compared with II: times better” value is 2-4 times. Besides, the “MIC values compared with II” value against strains of Table 1 (in most cases) is listed as “identical”. Also, the “Bioavailability compared with the comparison product” value in [3] (following oral and parenteral administration) is “better bioavailability”. Besides, in series [3] (mice, oral and parenteral), the “Serum levels compared with the comparison product” value is listed as “higher serum levels”. Further, the MIC in the series with Providencia 12052 was found to be 4 µg/mL (≈ 11.4 µM); against E. coli 455/7 it was 8 µg/mL (≈ 22.7 µM); in the series with Proteus mir. 8223 it was 4 µg/mL (≈ 11.4 µM); with Pseudomonas W., 1 µg/mL (≈ 2.84 µM); with Proteus mir. 8175, 0.25 µg/mL (≈ 0.71 µM); with Klebsiella 6179 it was 0.125 µg/mL (≈ 0.355 µM). Besides, the MIC stood at 0.125 µg/mL (≈ 0.355 µM) against Klebsiella 57 USA and 0.06 µg/mL (≈ 0.17 µM) with E. coli A 261.

Values taken from patent US4753925A, “Antibacterial 1,7-diamino-1,4-dihydro-4-oxo-3-quinolinecarboxylic acids” (Bayer Aktiengesellschaft, priority 1984, dated 1988).
